14 compounds from PubChem BioAssay (NCI) can be followed below.

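All cell lines were grown in 96-well plates and treated with compound for 48 hours. Definition used: TGI = concentration required for complete inhibition of growth.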

Test in all cases: growth of human tumour cells (NCI), 48 h
Assay [1] concerns A549 NSCLC.
Assay [2] relates to ACHN renal.
For assay [3], the system named is COLO 205 colon.
Assay [4] deals with EKVX NSCLC.
Assay [5] concerns HCT-15 colon.
For assay [6], the system named is HL-60(TB) leukemia.
The subject of assay [7] is HOP-62 NSCLC.
The subject of assay [8] is IGROV1 ovarian.
Assay [9] has as its system MOLT-4 leukemia.
For assay [10], the system named is NCI-H23 lung.
The subject of assay [11] is NCI-H522 lung.
For assay [12], the system named is OVCAR-3 ovarian.
The subject of assay [13] is RPMI-8226 leukemia.
Assay [14] deals with SK-MEL-2 melanoma.
Assay [15] deals with SK-MEL-28 melanoma.
Assay [16] concerns SNB-19 CNS.
For assay [17], the system named is SR leukemia.
The subject of assay [18] is TK-10 renal.
Assay [19] relates to U251 CNS.
The test system of assay [20] is RXF 393 renal.

As to `C/C(=N\NC(=S)NCc1ccccc1)c1nc2ncccc2[nH]1`, the TGI is over 100 µM in [1]; 52.9 µM in [2]; 34.4 µM in [3]; 8.51 µM in [4]; 37.2 µM in assay [5]; over 100 µM in assay [6]. The TGI in [7] is 26.2 µM; in [8] it was 34.1 µM; in [9], 17.5 µM; in assay [10] it was 40.8 µM; in assay [11] it was 32 µM; in assay [12] it was 39.8 µM. The TGI is 59.9 µM in [13]; 36 µM in assay [14]; 37.4 µM in [15]; 50.2 µM in [16]; over 100 µM in assay [17]; 73.4 µM in assay [18]. The compound further gave a TGI in [19] of 19.4 µM.
Turning to `O=C(CCN1CCOCC1)C(=Cc1ccccc1)C(=O)CCN1CCOCC1`, the TGI in [1] came to 35.8 µM; in assay [3], 6.97 µM; in assay [4] it was 5.59 µM; in [5] it was 4.74 µM; in assay [6], 3.52 µM; in assay [7], 37.5 µM. Further, the TGI in assay [8] was determined as 20.3 µM; in assay [9], 3.09 µM; in assay [10], 7.92 µM; in assay [11], 2.85 µM; in assay [12], 14.4 µM; in [13], 4.14 µM. For the same compound, the TGI stood at 3.14 µM in assay [20]; 22.6 µM in assay [14]; 5.64 µM in assay [15]; 28.3 µM in assay [16]; 28.4 µM in [19].
Turning to `NCc1cc(O)c(O)c(O)c1`, the TGI in [1], in [2], in assay [3], in assay [4], in [5] and in assay [6] was over 100 µM each time. Further, the TGI in assay [7], in assay [8], in [9], in assay [11], in assay [12] and in [13] was over 100 µM in each case. The TGI in assay [20], in assay [14], in assay [15], in assay [16], in [17] and in assay [18] was over 100 µM in each case. Moreover, the TGI in [19] was over 100 µM.
On to `O=C(N/N=C\C(F)(F)F)c1ccncc1`, for which the TGI in [3], in [5], in assay [6], in assay [7], in [8] and in [9] was over 100 µM each time. Besides, the TGI is 50.6 µM in [10]; over 100 µM in assay [12]; over 100 µM in assay [13]; over 100 µM in [20]; over 100 µM in [14]; over 100 µM in assay [15]. Also, the TGI in assay [16], in assay [17], in assay [18] and in assay [19] was over 100 µM throughout.
In the case of `COC(=O)C1=C(C)N2CCOC2CC1c1ccccc1` (configuration not stated), the TGI in [1], in [2], in assay [3], in assay [4], in assay [6] and in assay [7] was over 100 µM in each case. Further, the TGI in assay [8], in assay [9], in assay [10], in [12], in assay [13] and in assay [20] was over 100 µM each time. Moreover, the TGI in assay [14], in assay [15], in assay [16], in assay [17] and in assay [18] was over 100 µM each time.
Turning to `Cc1ccc(S(=O)(=O)NNC2Oc3cc4c(cc3C(c3ccccc3O)C2C)OCO4)cc1` (configuration not stated), the TGI stood at 26.8 µM in assay [1]; 26 µM in assay [2]; 29.5 µM in assay [3]; 23.8 µM in assay [4]; 32 µM in assay [5]; 40.8 µM in [6]. Also, the TGI is 29.6 µM in assay [7]; 27.2 µM in assay [8]; 42.7 µM in assay [9]; 33 µM in [10]; 27.3 µM in assay [11]; 23.7 µM in assay [12]. Besides, the TGI in [13] was 47.1 µM; in assay [20], 19.3 µM; in [14], 22.8 µM; in assay [15], 30.1 µM; in assay [16] it was 25.6 µM; in [17], 33.4 µM. In addition, the TGI in assay [18] was found to be 31.3 µM; in [19], 22 µM.
As to `Cc1ccc(S(=O)(=O)NCCCSCCSCCCN)cc1`, the TGI in assay [1], in assay [2], in [3], in [5], in assay [6] and in assay [9] was over 100 µM each time. Besides, the TGI in assay [10], in assay [11], in [12], in assay [20], in assay [15] and in [16] was over 100 µM each time. Further, the TGI in assay [17], in [18] and in assay [19] was over 100 µM each time.
`CCN(CC)CCN(C(=O)c1ccc(F)cc1)c1ccccc1N`: the TGI in assay [1], in assay [2], in assay [3], in [4], in assay [5] and in assay [6] was over 10 µM each time. In addition, the TGI in assay [7], in assay [8], in assay [9], in assay [10], in [11] and in assay [12] was over 10 µM each time. Also, the TGI in assay [13], in assay [20], in assay [14], in [15], in assay [16] and in [17] was over 10 µM in each case. Further, the TGI in [18] and in assay [19] was over 10 µM throughout.
As for `CNCCC=C1c2ccccc2CCc2ccccc21`, the TGI in assay [1] was 32.1 µM; in [2], 30.2 µM; in [3], 21 µM; in assay [4], 29.2 µM; in [5] it was 32.3 µM; in assay [6], 31.7 µM. For the same compound, the TGI amounted to 28.2 µM in assay [7]; 30.7 µM in [8]; 29.4 µM in [9]; 29.9 µM in assay [10]; 29.2 µM in assay [11]; 23.6 µM in assay [12]. Further, the TGI was determined as 32.8 µM in assay [13]; 22.6 µM in assay [20]; 29.2 µM in assay [14]; 27 µM in assay [15]; 31.6 µM in [16]; 32.7 µM in assay [17]. In addition, the TGI in [18] stood at 28 µM; in [19], 27.6 µM.
In the case of `COc1cc2oc(=O)ccc2cc1CC=C(C)C`, the TGI in assay [1] was over 100 µM; in assay [2], over 100 µM; in [3], over 100 µM; in assay [4], over 100 µM; in [6] it was 33.1 µM; in assay [7] it was over 100 µM. The TGI in assay [8] was over 100 µM; in assay [9], over 100 µM; in [10], over 100 µM; in assay [11], over 100 µM; in assay [12], over 100 µM; in assay [13], 61 µM. Also, the TGI in assay [20] was 64.7 µM; in assay [14] it was over 100 µM; in [15], over 100 µM; in [16], over 100 µM; in assay [17] it was 57.4 µM; in [18] it was 97.5 µM. The compound also returned a TGI in assay [19] of over 100 µM.
For the compound `CN(C)CCN(C(=Nc1ccccc1)N1CCCC1)c1ccccc1`, the TGI in [1], in assay [2], in assay [3], in [4], in assay [5] and in assay [6] was over 100 µM each time. Moreover, the TGI in assay [7], in assay [8], in assay [9], in assay [10], in [11] and in [12] was over 100 µM each time. Also, the TGI in [13] is 82.3 µM; in [14] it was over 100 µM; in assay [15], over 100 µM; in [16] it was over 100 µM; in assay [17], over 100 µM; in assay [18] it was over 100 µM. Also, the TGI in assay [19] was over 100 µM.
Consider `CN1C(=O)C2C=C3CCCCC3=CC2N(C)C1=O` (configuration not stated), for which the TGI in assay [1], in assay [2], in assay [3], in assay [4], in [5] and in assay [6] was over 100 µM throughout. Further, the TGI in assay [7], in assay [8], in assay [9], in assay [10], in assay [11] and in [12] was over 100 µM in each case. Besides, the TGI in assay [13], in assay [20], in [14], in assay [15], in [16] and in assay [17] was over 100 µM in each case. The TGI in assay [18] and in assay [19] was over 100 µM in each case.
Turning to `COc1cc(C(=O)Nc2cc(C(N)=O)cc(OC)c2OC)cc(NC(=O)/C=C/c2ccccc2)c1OC`, the TGI in assay [1], in assay [2], in assay [3], in assay [4], in assay [5] and in [6] was over 100 µM in each case. For the same compound, the TGI in assay [8], in [9], in [10], in assay [11], in assay [12] and in assay [13] was over 100 µM each time. The TGI in assay [20], in [15], in [16], in assay [17] and in assay [18] was over 100 µM throughout.
Turning to `CC(=O)NNc1nc(C)c(C(=O)NNC(=O)C(=O)Nc2c(C)cccc2C(C)(C)C)s1`, the TGI in assay [1], in [2], in assay [3], in [4], in [5] and in assay [6] was over 100 µM in each case. Besides, the TGI in [7] was over 100 µM; in assay [8], over 100 µM; in assay [9], over 100 µM; in assay [10] it was over 100 µM; in assay [11] it was 57.1 µM; in assay [13], over 100 µM. In addition, the TGI in [20], in assay [14], in [15], in assay [16], in assay [17] and in assay [18] was over 100 µM in each case. The compound also displayed a TGI in assay [19] of over 100 µM.
